Assay results taken from patent US12582666B2, “Low dose therapeutic treatment” (Syqe Medical Ltd., priority 2016, dated 2026).

Experiments:
GPR55 = GPR55 (Homo sapiens, UniProt Q9Y2T6); settings: cited from earlier work
CB1 and CB2 receptors = settings: comparison of the two receptors; cited from earlier work
5-HT1A receptor = target: T1, 5-HT1A receptor (Homo sapiens, UniProt P08908); settings: cited from earlier work
T1 sequence (P08908 1-422): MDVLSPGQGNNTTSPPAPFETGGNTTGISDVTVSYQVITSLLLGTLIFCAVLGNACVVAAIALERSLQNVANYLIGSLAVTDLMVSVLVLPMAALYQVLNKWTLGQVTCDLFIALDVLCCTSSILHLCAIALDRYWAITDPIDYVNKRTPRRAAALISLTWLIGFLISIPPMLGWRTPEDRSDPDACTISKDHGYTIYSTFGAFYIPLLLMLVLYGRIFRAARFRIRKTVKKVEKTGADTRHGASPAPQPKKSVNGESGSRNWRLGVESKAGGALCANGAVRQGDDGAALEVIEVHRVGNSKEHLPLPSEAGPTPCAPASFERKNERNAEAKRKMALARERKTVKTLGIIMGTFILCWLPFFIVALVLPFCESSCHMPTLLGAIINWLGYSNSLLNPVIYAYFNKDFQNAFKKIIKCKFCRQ

[1] = cited from earlier work
pain = test: FIG. 10: pain treated with 0.5 mg inhaled THC doses at intervals of at least two hours; assay type: in vivo, human
Method: FIG. 10 is a graphical representation of a regimen for the treatment of pain by pulmonary delivery of 0.5 mg THC doses delivered in time intervals of at least two hours, according to some embodiments of the invention.
In this use over a time period of 16 hours, 4 doses of 0.5 mg THC each were provided at time intervals of at least two hours between sequential doses, indicated by the grey triangles. The black line represents the symptom level, in this case pain, and the grey line represents psychoactive effects.
The x-axis represents the time of day, and the y-axis represents an arbitrary scale for indicating symptom severity and level of psychoactivity. The scale represents, based on user reports, a grade of the symptoms and a grade of the psychoactive effects, for example compared to a baseline report collected from the patient before treatment.

[2] = system: cancer patients suffering from advanced symptoms and/or side effects of chemotherapy; test: Inventors' experiments: low dose inhaled THC, at least two hours between doses; assay type: in vivo, human
Method: It has been shown by inventors in experiments performed that an inhaled THC dose of 0.2-2 mg may provide sufficient symptom alleviation for a time period of at least 2 hours, at least 3 hours, at least 4 hours, at least 6 hours or intermediate or longer time periods. […] Other examples of symptoms which may be alleviated by prescribing a low dose regimen may include adverse effects of chemotherapy and/or vomiting and/or weight loss and/or insomnia and/or euphoria and/or drowsiness and/or psychomotor effects and/or cognitive effects, and/or agitation and/or depression.
Cancer patients suffering from advanced symptoms and/or side effects of chemotherapy were treated in accordance with the above described regimen, being delivered a dose of between 0.2-2 mg THC at a single delivery event and waiting at least two hours before the next dose. The patients voluntarily reported their conditions.
In a first case, a cancer patient was admitted to hospital for chemotherapy. They were previously prescribed cannabis for pain, vomiting, nausea and weight loss, which they took by smoking cigarettes. […] In the experiment, the patient was prescribed 3×0.5 mg THC per day, delivered using an inhaler device for example as described hereinabove. The first dose was to be taken 30 minutes before chemotherapy. The patient was allowed to take additional inhalations as needed. […] The patient inhaled the 3 prescribed doses only, and no other medication was prescribed or taken. Later, the same patient readmitted to hospital for an additional round of chemotherapy. This time they chose to inhale THC in four 0.5 mg doses, a first dose in the morning before chemotherapy, second and third doses taken concomitantly at midday (amounting to a single 1 mg dose) and a fourth dose in the evening.
In a second case, a cancer patient was admitted to the hospital for severe pain and in order to resume treatment that they chose to terminate earlier. They were previously prescribed cannabis for pain, cachexia and nausea, in addition to other drugs. Throughout the treatment, they received a continuous morphine drip (400-600 mg) with additional morphine treatment upon need. Before being hospitalized, they had not eaten for a week, suffered from sleep deprivation and was depressed. In the hospital they were provided with an inhaler for example as described hereinabove and during the first day of use they inhaled 0.5 mg THC doses 18 times a day, which included 4 previously prescribed doses of 0.5 mg and many demands for additional pain relief. On the next day they reduced the intake to 1 mg inhalations, 4 times a day, continuing for a period of 8 days.

[3] = system: nausea of a patient undergoing chemotherapy; test: FIG. 11: nausea of a chemotherapy patient treated with 0.5 mg inhaled THC doses; assay type: in vivo, human; settings: first 0.5 mg THC dose 30 minutes before chemotherapy
Method: FIG. 11 is a graphical representation of the treatment effect achieved by pulmonary delivery of 0.5 mg THC doses, delivered at time intervals of at least two hours, according to some embodiments of the invention.
In this example, nausea levels of a patient undergoing chemotherapy are shown, as indicated by the arbitrary Y-axis scale. The black line depicts a typical nausea effect that is often witnessed when no special anti-nausea treatment is provided (optionally other than the conventional prophylactic treatment provided normally intravenously in chemotherapy sessions).
Chemotherapy commenced at 7:00 AM, as indicated by the black arrow. […] It may remain high when not treated or even with conventional treatment, although the degree of nausea may fluctuate.
The gray line depicts nausea levels under treatment with 0.5 mg doses of THC, delivered in intervals of at least two hours, indicated by the grey triangles. […] Two additional doses of 0.5 mg THC each, delivered at 12:30 and at 19:00, sufficed to allow the patient to combat the nausea throughout the day.

[4] = single inhaled cannabis dose, Syqe Inhaler

Sequence of GPR55 (Q9Y2T6 whole entry, species assumed): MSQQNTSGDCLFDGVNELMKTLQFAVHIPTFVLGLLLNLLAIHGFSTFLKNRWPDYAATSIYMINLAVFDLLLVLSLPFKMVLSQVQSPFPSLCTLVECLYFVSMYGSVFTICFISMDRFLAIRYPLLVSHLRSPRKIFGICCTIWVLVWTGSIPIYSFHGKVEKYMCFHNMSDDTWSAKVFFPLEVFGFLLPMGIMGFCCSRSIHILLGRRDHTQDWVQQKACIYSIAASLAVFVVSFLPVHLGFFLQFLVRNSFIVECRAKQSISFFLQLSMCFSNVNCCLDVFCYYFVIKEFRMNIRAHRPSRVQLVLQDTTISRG

Row | Structure (SMILES) | action at GPR55 (GPR55) | affinity for the CB1 and CB2 receptors (CB1 and CB2 receptors) | action at 5-HT1A receptor (5-HT1A receptor) | Tmax±SD ([1]; single 15.1±0.1 mg dose of cannabis inhaled with Syqe Inhaler, eight patients) | interindividual variability of Cmax [1, 4] | plasma Cmax increase per mg Δ(9)-THC administered [1, 4] | time after dose at which pain level begins to rise again (pain; 0.5 mg THC inhaled) | pain level after first dose (pain; 0.5 mg THC inhaled at 6:30, arbitrary scale from user reports) | psychoactivity after first dose (pain; 0.5 mg THC inhaled, arbitrary scale from user reports) | eating ([2]; cancer patient, 0.5 mg THC 18 times on first day, then 1 mg 4 times a day for 8 days, with morphine drip) | mood ([2]; cancer patient, 3×0.5 mg THC per day by inhaler) | mood ([2]; cancer patient, inhaled THC with morphine drip) | time period of sufficient symptom alleviation ([2]; inhaled THC dose of 0.2-2 mg) | treatment outcome in additional round of chemotherapy ([2]; same patient, four 0.5 mg inhaled THC doses) | maximum nausea level reached [3] | onset of nausea [3]
1 | C=C(C)[C@@H]1CCC(C)=C[C@H]1c1c(O)cc(CCCCC)cc1O [CBD, Cannabidiol] | antagonist | greater affinity for the CB2 receptor than for the CB1 receptor | 5-HT1A receptor agonist |  |  |  |  |  |  |  |  |  |  |  |  | 
2 | CCCCCc1cc(O)c2c(c1)OC(C)(C)[C@@H]1CCC(C)=C[C@@H]21 [THC, Δ9-tetrahydrocannabinol] |  | approximately equal affinity for the CB1 and CB2 receptors |  | 3 ± 1 min | 25.3% | 12.3 ng/mL/mg THC | about 2 hours | effective to dramatically reduce the pain level | A rise in psychoactivity occurs | ate 3 meals per day | significantly improved mood | significant mood improvement | at least 2 hours | effective | significant reduction in the maximum level reached | significant delay in the onset of nausea
